Assay results published in ChEMBL document CHEMBL1201861, “Genomics of Drug Sensitity in Cancer screening data, Wellcome Trust Sanger Institute”.

Columns and labels:
COR-L279 = experiment: SANGER: Inhibition of human COR-L279 cell growth in a cell viability assay.; type: functional, cell-based; conditions: Homo sapiens, COR-L279
Calu-3 = experiment: cells; type: functional, cell-based; conditions: Homo sapiens
Description: SANGER: Inhibition of human Calu-3 cell growth in a cell viability assay.

Daudi = experiment: cells; type: functional, cell-based, Homo sapiens; conditions: Homo sapiens, Daudi
Description: SANGER: Inhibition of human Daudi cell growth in a cell viability assay.

EFO-27 = experiment: cells; type: functional, cell-based; conditions: Homo sapiens
Description: SANGER: Inhibition of human EFO-27 cell growth in a cell viability assay.

FaDu = experiment: cells; type: functional, cell-based; conditions: Homo sapiens
Description: SANGER: Inhibition of human FADU cell growth in a cell viability assay.

GAMG = experiment: cells; type: functional, cell-based; conditions: Homo sapiens
Description: SANGER: Inhibition of human GAMG cell growth in a cell viability assay.

HCC1395 = experiment: cells; type: functional, cell-based; conditions: Homo sapiens
Description: SANGER: Inhibition of human HCC1395 cell growth in a cell viability assay.

HCC1954 = experiment: cells; type: functional, cell-based; conditions: Homo sapiens
Description: SANGER: Inhibition of human HCC1954 cell growth in a cell viability assay.

HCT-15 = experiment: cells; type: functional, cell-based; conditions: Homo sapiens
Description: SANGER: Inhibition of human HCT-15 cell growth in a cell viability assay.

HGC-27 = experiment: cells; type: functional, cell-based; conditions: Homo sapiens
Description: SANGER: Inhibition of human HGC-27 cell growth in a cell viability assay.

HLE = experiment: cells; type: functional, cell-based; conditions: Homo sapiens
Description: SANGER: Inhibition of human HLE cell growth in a cell viability assay.

HN = experiment: cells; type: functional, cell-based; conditions: Homo sapiens
Description: SANGER: Inhibition of human HN cell growth in a cell viability assay.

HTC-C3 = experiment: cells; type: functional, cell-based; conditions: Homo sapiens
Description: SANGER: Inhibition of human HTC-C3 cell growth in a cell viability assay.

HuCCT-1 = experiment: cells; type: functional, cell-based, HuCCT1; conditions: Homo sapiens
Description: SANGER: Inhibition of human HuCCT1 cell growth in a cell viability assay.

HuP-T3 = experiment: cells; type: functional, cell-based; conditions: Homo sapiens
Description: SANGER: Inhibition of human HuP-T3 cell growth in a cell viability assay.

IM-9 = experiment: SANGER: Inhibition of human IM-9 cell growth in a cell viability assay.; type: functional, cell-based; conditions: Homo sapiens, IM-9
KYSE-270 = experiment: cells; type: functional, cell-based; conditions: Homo sapiens
Description: SANGER: Inhibition of human KYSE-270 cell growth in a cell viability assay.

LCLC-103H cell line = experiment: cells; type: functional, cell-based; conditions: Homo sapiens
Description: SANGER: Inhibition of human LCLC-103H cell growth in a cell viability assay.

MC-IXC = experiment: cells; type: functional, cell-based; conditions: Homo sapiens
Description: SANGER: Inhibition of human MC-IXC cell growth in a cell viability assay.

MDA-MB-134-VI = experiment: cells; type: functional, cell-based, Homo sapiens; conditions: Homo sapiens, MDA-MB-134-VI
Description: SANGER: Inhibition of human MDA-MB-134-VI cell growth in a cell viability assay.

MDA-MB-157 = experiment: cells; type: functional, cell-based; conditions: Homo sapiens
Description: SANGER: Inhibition of human MDA-MB-157 cell growth in a cell viability assay.

MEL-HO = experiment: cells; type: functional, cell-based; conditions: Homo sapiens
Description: SANGER: Inhibition of human MEL-HO cell growth in a cell viability assay.

MKN-1 = experiment: cells; type: functional, cell-based; conditions: Homo sapiens
Description: SANGER: Inhibition of human MKN1 cell growth in a cell viability assay.

MKN-45 = experiment: cells; type: functional, cell-based; conditions: Homo sapiens
Description: SANGER: Inhibition of human MKN45 cell growth in a cell viability assay.

NCI-H1437 = experiment: cells; type: functional, cell-based; conditions: Homo sapiens
Description: SANGER: Inhibition of human NCI-H1437 cell growth in a cell viability assay.

NCI-H1703 = experiment: cells; type: functional, cell-based; conditions: Homo sapiens
Description: SANGER: Inhibition of human NCI-H1703 cell growth in a cell viability assay.

NCI-H1882 = experiment: cells; type: functional, cell-based, Homo sapiens; conditions: Homo sapiens, NCI-H1882
Description: SANGER: Inhibition of human NCI-H1882 cell growth in a cell viability assay.

NCI-H2141 = experiment: cells; type: functional, cell-based, Homo sapiens; conditions: Homo sapiens, NCI-H2141
Description: SANGER: Inhibition of human NCI-H2141 cell growth in a cell viability assay.

NCI-H2405 = experiment: cells; type: functional, cell-based; conditions: Homo sapiens
Description: SANGER: Inhibition of human NCI-H2405 cell growth in a cell viability assay.

NCI-H322M = experiment: cells; type: functional, cell-based, Homo sapiens; conditions: Homo sapiens, NCI-H322M
Description: SANGER: Inhibition of human NCI-H322M cell growth in a cell viability assay.

NCI-H510A = experiment: cells; type: functional, cell-based, Homo sapiens; conditions: Homo sapiens, NCI-H510A
Description: SANGER: Inhibition of human NCI-H510A cell growth in a cell viability assay.

NCI-H522 = experiment: cells; type: functional, cell-based; conditions: Homo sapiens
Description: SANGER: Inhibition of human NCI-H522 cell growth in a cell viability assay.

NCI-H524 = experiment: cells; type: functional, cell-based, Homo sapiens; conditions: Homo sapiens, NCI-H524
Description: SANGER: Inhibition of human NCI-H524 cell growth in a cell viability assay.

NCI-H630 = experiment: cells; type: functional, cell-based; conditions: Homo sapiens
Description: SANGER: Inhibition of human NCI-H630 cell growth in a cell viability assay.

NCI-H810 = experiment: cells; type: functional, cell-based; conditions: Homo sapiens
Description: SANGER: Inhibition of human NCI-H810 cell growth in a cell viability assay.

SNU-16 = experiment: cells; type: functional, cell-based, Homo sapiens; conditions: Homo sapiens, SNU-16
Description: SANGER: Inhibition of human NCI-SNU-16 cell growth in a cell viability assay.

NY = experiment: cells; type: functional, cell-based; conditions: Homo sapiens
Description: SANGER: Inhibition of human NY cell growth in a cell viability assay.

RD = experiment: cells; type: functional, cell-based; conditions: Homo sapiens
Description: SANGER: Inhibition of human RD cell growth in a cell viability assay.

RMG-I = experiment: cells; type: functional, cell-based; conditions: Homo sapiens
Description: SANGER: Inhibition of human RMG-I cell growth in a cell viability assay.

Raji = experiment: cells; type: functional, cell-based, Homo sapiens; conditions: Homo sapiens, Raji
Description: SANGER: Inhibition of human Raji cell growth in a cell viability assay.

SCLC-21H = experiment: cells; type: functional, cell-based, Homo sapiens; conditions: Homo sapiens, SCLC-21H
Description: SANGER: Inhibition of human SCLC-21H cell growth in a cell viability assay.

SIMA = experiment: cells; type: functional, cell-based, Homo sapiens; conditions: Homo sapiens, SIMA
Description: SANGER: Inhibition of human SIMA cell growth in a cell viability assay.

SNU-449 = experiment: cells; type: functional, cell-based; conditions: Homo sapiens
Description: SANGER: Inhibition of human SNU-449 cell growth in a cell viability assay.

SW1463 = experiment: cells; type: functional, cell-based; conditions: Homo sapiens
Description: SANGER: Inhibition of human SW1463 cell growth in a cell viability assay.

SW1710 = experiment: cells; type: functional, cell-based; conditions: Homo sapiens
Description: SANGER: Inhibition of human SW1710 cell growth in a cell viability assay.

SW1990 = experiment: cells; type: functional, cell-based; conditions: Homo sapiens
Description: SANGER: Inhibition of human SW1990 cell growth in a cell viability assay.

SW626 = experiment: cells; type: functional, cell-based; conditions: Homo sapiens
Description: SANGER: Inhibition of human SW626 cell growth in a cell viability assay.

SW780 = experiment: cells; type: functional, cell-based; conditions: Homo sapiens
Description: SANGER: Inhibition of human SW780 cell growth in a cell viability assay.

T-24 = experiment: cells; type: functional, cell-based; conditions: Homo sapiens
Description: SANGER: Inhibition of human T-24 cell growth in a cell viability assay.

A204 = experiment: cells; type: functional, cell-based; conditions: Homo sapiens
Description: SANGER: Inhibition of human A204 cell growth in a cell viability assay.

A-427 = experiment: cells; type: functional, cell-based; conditions: Homo sapiens
Description: SANGER: Inhibition of human A427 cell growth in a cell viability assay.

ARH-77 = experiment: cells; type: functional, cell-based, Homo sapiens; conditions: Homo sapiens, ARH-77
Description: SANGER: Inhibition of human ARH-77 cell growth in a cell viability assay.

C3A = experiment: cells; type: functional, cell-based; conditions: Homo sapiens
Description: SANGER: Inhibition of human C3A cell growth in a cell viability assay.

CAL-148 = experiment: cells; type: functional, cell-based, Homo sapiens; conditions: Homo sapiens, CAL-148
Description: SANGER: Inhibition of human CAL-148 cell growth in a cell viability assay.

CAL-39 = experiment: cells; type: functional, cell-based; conditions: Homo sapiens
Description: SANGER: Inhibition of human CAL-39 cell growth in a cell viability assay.

UO-31 = experiment: cells; type: functional, cell-based; conditions: Homo sapiens
Description: SANGER: Inhibition of human U031 cell growth in a cell viability assay.

U-251 = experiment: cells; type: functional, cell-based; conditions: Homo sapiens
Description: SANGER: Inhibition of human U251 cell growth in a cell viability assay.

CAMA-1 = experiment: cells; type: functional, cell-based; conditions: Homo sapiens
Description: SANGER: Inhibition of human CAMA-1 cell growth in a cell viability assay.

CAPAN-1 = experiment: cells; type: functional, cell-based; conditions: Homo sapiens
Description: SANGER: Inhibition of human CAPAN-1 cell growth in a cell viability assay.

CHP-126 = experiment: cells; type: functional, cell-based, Homo sapiens; conditions: Homo sapiens, CHP-126
Description: SANGER: Inhibition of human CHP-126 cell growth in a cell viability assay.

## O=S(=O)(O)c1ccc2cc(/N=N/c3cc(S(=O)(=O)O)c4cccnc4c3O)ccc2c1
COR-L279
  IC50: > 16 µM
Calu-3
  IC50: > 16 µM
Daudi
  IC50: > 16 µM
EFO-27
  IC50: > 16 µM
FaDu
  IC50: > 16 µM
GAMG
  IC50: > 16 µM
HCC1395
  IC50: > 16 µM
HCC1954
  IC50: > 16 µM
HCT-15
  IC50: 15.9 µM
HGC-27
  IC50: > 16 µM
HLE
  IC50: > 16 µM
HN
  IC50: > 16 µM
HTC-C3
  IC50: > 16 µM
HuCCT-1
  IC50: > 16 µM
HuP-T3
  IC50: > 16 µM
IM-9
  IC50: > 16 µM
KYSE-270
  IC50: > 16 µM
LCLC-103H cell line
  IC50: > 16 µM
MC-IXC
  IC50: > 16 µM
MDA-MB-134-VI
  IC50: > 16 µM
MDA-MB-157
  IC50: > 16 µM
MEL-HO
  IC50: > 16 µM
MKN-1
  IC50: > 16 µM
MKN-45
  IC50: > 16 µM
NCI-H1437
  IC50: > 16 µM
NCI-H1703
  IC50: > 16 µM
NCI-H1882
  IC50: > 16 µM
NCI-H2141
  IC50: > 16 µM
NCI-H2405
  IC50: > 16 µM
NCI-H322M
  IC50: > 16 µM
NCI-H510A
  IC50: > 16 µM
NCI-H522
  IC50: > 16 µM
NCI-H524
  IC50: > 16 µM
NCI-H630
  IC50: > 16 µM
NCI-H810
  IC50: > 16 µM
SNU-16
  IC50: > 16 µM
NY
  IC50: > 16 µM
RD
  IC50: > 16 µM
RMG-I
  IC50: > 16 µM
Raji
  IC50: > 16 µM
SCLC-21H
  IC50: > 16 µM
SIMA
  IC50: > 16 µM
SNU-449
  IC50: > 16 µM
SW1463
  IC50: > 16 µM
SW1710
  IC50: > 16 µM
SW1990
  IC50: > 16 µM
SW626
  IC50: > 16 µM
SW780
  IC50: > 16 µM
T-24
  IC50: > 16 µM
A204
  IC50: > 16 µM
A-427
  IC50: > 16 µM
ARH-77
  IC50: > 16 µM
C3A
  IC50: > 16 µM
CAL-148
  IC50: > 16 µM
CAL-39
  IC50: > 16 µM
UO-31
  IC50: 13.6 µM
U-251
  IC50: > 16 µM
CAMA-1
  IC50: > 16 µM
CAPAN-1
  IC50: > 16 µM
CHP-126
  IC50: > 16 µM
